# From patent publication US20060153861A1, “BCR-ABL imatinib resistance-associated peptides and methods of use thereof” (priority 2004, published 2006)
# Tests used:
# [1] = tested on: T cells from HLA A0201 donors challenged with peptide-pulsed T2 cells; assay: Gamma interferon ELISPOT of T cells after in vitro stimulation with peptide; format: cell-based, human; conditions: for recognition of the native sequence by T cells elicited with the peptide / immune response (IFN-gamma secretion, ELISPOT) / immune response as gamma-IFN secretion by CD3+ T cells: healthy HLA A0201 donors; for recognition of the native sequence by T cells elicited with the peptide: T2 pulsed with native peptide; for immune response (IFN-gamma secretion, ELISPOT): second or third round of peptide stimulation, peptide-pulsed T2 targets; for immune response as gamma-IFN secretion by CD3+ T cells: b2a2-derived peptides, FIG. 4; for IFN-γ production (ELISPOT) / heteroclitic response (ELISPOT): CD3+ T cells from HLA A0201 donors; for IFN-γ production (ELISPOT): imatinib resistance-associated peptides, two or three stimulations; for heteroclitic response (ELISPOT): FIGS. 8 and 9
# [2] = biological target: HLA A0201 (Homo sapiens, UniProt P04439, D140Y/D185E/D98H/E176V/E277Q/G131W/G231S/I119V/I121R/I166T/I218V/L300P/L318F/N151K/N90K/P208A/P217A/Q86G/Q94H/R138H/R169H/T345S); assay: BIMAS predicted score for binding to HLA A0201; conditions: analogue versus native CMLA2
# Protocol: Peptides with potential CTL epitopes can be predicted by means of a peptide library-based scoring system for MHC class I-binding peptides. AA sequences of the human b3a2 and b2a2 fusion proteins were scanned for peptides with potential binding capacity for HLA A0201, a subtype encompassing 95% of the HLA-A02 allele. HLA-A0201 is expressed in about 40% of the Caucasian population.
# Substitutions were determined using the software of the Bioinformatics & Molecular Analysis Section (National Institutes of Health, Washington, D.C.) (Parker K C, et al. J Immunol 1994;152(1):163-75; available at http://bimas.dcrt.nih.gov/cgi-bin/molbio/ken_parker_comboform), which ranks 9-mer or 10-mer peptides on a predicted half life dissociation coefficient from HLA class I molecules. Several analogue peptides were designed whereby one or both anchor amino acids or additional amino acids adjacent to anchor amino acids were modified. […] All the native peptides were predicted to have a half life of less than one minute. Most substitutions affected the primary or secondary anchor motifs (leucine in position 2 or valine in position 9 or 6) but in some cases, a tyrosine was substituted in position 1. […] Also depicted in Table 1 are the predicted half lives according to another software program, […] (Rammensee H G, et al., Immunogenetics 1995; 41(4): 178-228; available at http://syfpeithi.bmi-heidelberg.com).
# [3] = biological target: T1, HLA A0201 molecules (Homo sapiens, UniProt P04439, D140Y/D185E/D98H/E176V/E277Q/G131W/G231S/I119V/I121R/I166T/I218V/L300P/L318F/N151K/N90K/P208A/P217A/Q86G/Q94H/R138H/R169H/T345S); assay: T2 assay for peptide binding to HLA A0201 molecules; conditions: T2 cells, FIG. 1
# T1 construct: endogenous in cells; host or cells: T2 (174xCEM.T2) human cell line
# Protocol: (§1) T2 cells (TAP-, HLA-A0201^+) were incubated overnight at 27° C. at a concentration of 1×10^6 cells/ml in FCS-free RPMI medium supplemented with 5 μg/ml human β2microglobulin (Sigma, St Louis, Mo.) in the absence (negative control) or presence of either a positive reference tyrosinase peptide or test peptides at various final concentrations (50, 10, 1, and 0.1 μg/ml). Following a 4-hour incubation with 5 μg/ml brefeldin A (Sigma), T2 cells were labeled for 30 minutes at 4° C. with a saturating concentration of anti-HLA-A2.1 (BB7.2) monoclonal antibody (mAb), then washed twice. The cells were then incubated for 30 minutes at 4° C. with a saturating concentration of FITC-conjugated goat IgG F(ab′)2 anti-mouse Ig (Caltag, South San Francisco, Calif.), washed twice, fixed in PBS/1% paraformaldehyde and analyzed using a FACS Calibur® cytofluorometer (Becton Dickinson, Immunocytometry systems, San Jose, Calif.).
# The mean intensity of fluorescence (MIF) observed for each peptide concentration (after dividing of the MIF observed without peptide) was used as an estimate of peptide binding and expressed as a fluorescence index. Stabilization assays were performed similarly. Following initial evaluation of peptide binding at time 0, cells were washed in RPMI complete medium to remove free peptides and incubated in the continuous presence of 0.5 pg/ml brefeldin-A for 2, 4, 6 or 8 hours. […]
# [4] = tested on: T2 cells pulsed with peptide; assay: Chromium-51 release cytotoxicity assay with peptide-stimulated T cells; format: cell-based, human; conditions: for killing of cells expressing the native peptide: T cell lines after several stimulations with the heteroclitic peptide; for killing of T2 cells pulsed with the heteroclitic peptide: T cell lines after several stimulations, no lysis of T2 without peptide or with control peptide; for killing of T2 cells pulsed with kinase mutant sequence peptides: T cells generated by several stimulations with the peptide, not with control peptide or no peptide
# Protocol: T lymphocytes were isolated from the same donors by use of negative selection by depletion with an anti-CD11b, anti-CD56 and CD19 MAb (Miltenyi, CA). A total of 1×10^6 pure T lymphocytes were cultured with 1×10^5 autologous DC in RPMI 1640 medium supplemented with 5% heat-inactivated human autologous plasma with bcr-abl synthetic peptides at a concentration of 10 μg/mL and β2 microglobulin at 2 μg/ml in 24-well plates in the presence of 5-10 ng/mL recombinant human IL-7 (Genzyme) and 0.1 ng/ml IL-12. After culture for 3 days 20 U/ml of IL-2 was added. After 10 days, 1×10^6 cells were stimulated again by adding 2×10^5 autologous, magnetically isolated CD14^+ monocytes together with 10 ng/ml of IL-7 and 20 U/ml IL-2 and peptide at a concentration of […]. In some cases, as indicated, after culture for another 7 days, the cells were stimulated a third time, in the same manner. After the second or third stimulation, CD8 T cells were magnetically isolated and cytotoxicity and gamma-IFN (interferon) secretion of these cells was then examined.
# The presence of specific CTLs was measured in a standard 4 h-chromium release assay as follows. 4×10^6 targets were labeled with 300 μCi of Na2 ^51CrO+ (NEN Life Science Products, Inc. Boston, Mass.) for 1 hour at 37° C. After washing, cells at 2×10^6/ml concentration were incubated with or without synthetic peptides at a concentration of 10 μg/ml for 2 h at 20° C. in presence of β2 microglobulin at 3 μg/ml. After washing by centrifugation, target cells were resuspended in complete media at 5×10^4 cells per ml and plated in a 96 well U-bottom plate (Becton Dickinson®, NY) at 5×10^3 cells per well with effector cells at effector to target (E/T) ratios ranging from 100:1 to 10:1. Plates were incubated for 5 hours at 37° C. in 5% CO2. Supernatant fluids were harvested and radioactivity was measured -in a gamma counter. Percent specific lysis was determined from the following formula: 100× [(experimental release−spontaneous release)/(maximum release−spontaneous release)]. Maximum release was determined by lysis of targets in 2.5% Triton X-100.
# In order to determine whether the in vitro-generated T cells were capable of cytolysis, T cell lines obtained after several stimulations with p210C and b2a2A3 were assayed by chromium-51 release assays using peptide pulsed target cell lines.
# [5] = biological target: T2, HLA-A0201 molecule on T2 cells (TAP-, HLA-A0201+) (human); assay: T2 binding and stabilization assay, flow cytometry with BB7.2
# T2 construct: Empty, thermolabile HLA-A0201 on live T2 cells; also called HLA-A2.1
# Protocol: as §1, with “HLA-A0201⁺)” for “HLA-A0201^+)”, “1×10⁶” for “1×10^6”, “β₂microglobulin” for “β2microglobulin”
# The mean intensity of fluorescence (MIF) observed for each peptide concentration (after dividing of the MIF observed without peptide) was used as an estimate of peptide binding and expressed as a fluorescence index. Stabilization assays were performed similarly. Following initial evaluation of peptide binding at time 0, cells were washed in RPMI complete medium to remove free peptides and incubated in the continuous presence of 0.5 pg/ml brefeldin-A for 2, 4, 6 or 8 hours.
# For peptides to be immunogenic, in an MHC class I-restricted context, they require the capacity to bind and stabilize MHC class I molecules on the live cell surface. Since the computer prediction models above have 60-80% predictive accuracy, direct measurement of the strength of the interaction between the peptides and the HLA-A0201 molecule was performed, with a conventional binding and stabilization assay that uses the antigen-transporting deficient (TAP2 negative) HLA-A0201 human T2 cells.
# [6] = biological target: T2, HLA-A0201 molecule on T2 cells (TAP-, …); assay: T2 assay, referred to in the ELISPOT example
molecule,measurement,setting,value
YLKALQRPV (listed as Homo sapiens) [p210F],recognition of the native sequence by T cells elicited with the peptide,[1],able to recognize their respective native sequences
same,"immune response (IFN-gamma secretion, ELISPOT)",[1],most consistent and significant immune-responses
same,increase of BIMAS prediction,[2],700 fold
same,binding to HLA A0201 in the T2 assay,[3],high avidity
YLINKEEAV (listed as Homo sapiens) [b2a2 A4],immune response as gamma-IFN secretion by CD3+ T cells,[1],significant immune respose
KLGGGQYGV (listed as Homo sapiens) [V2A1],IFN-γ production (ELISPOT),[1],greater IFN-γ was produced following a third stimulation
YLINKVEAL (listed as Homo sapiens) [b2a2 A5],immune response as gamma-IFN secretion by CD3+ T cells,[1],significant immune respose
KLGGGQFGV (listed as Homo sapiens) [V2A3],heteroclitic response (ELISPOT),[1],stimulated heteroclitic responses
TLFKQSSKV (listed as Homo sapiens) [p210D],"immune response (IFN-gamma secretion, ELISPOT)",[1],produced an immune response in some donors tested
KLLQRPVAV (listed as Homo sapiens) [p210C],immune responses in CML patients,[1]; 4 patients with chronic phase CML assayed,observed in two of the CML patients
same,frequency of CD8+ cells recognizing T2 pulsed with the synthetic peptide,"[1]; CML patient, two rounds of stimulation",~400 spot-forming cells (SCF) per 1×10^5 cells
same,recognition of the native sequence by T cells elicited with the peptide,[1],able to recognize their respective native sequences
same,"immune response (IFN-gamma secretion, ELISPOT)",[1],most consistent and significant immune-responses
same,killing of cells expressing the native peptide,[4],able to recognize and kill cells expressing the native peptide
same,killing of T2 cells pulsed with the heteroclitic peptide,[4],able to kill T2 cells pulsed with the heteroclitic peptides
KLSSKALQV (listed as Homo sapiens) [p210B],"immune response (IFN-gamma secretion, ELISPOT)",[1],no immune response
KVYEGVWKV (listed as Homo sapiens) [K2A3],heteroclitic response (ELISPOT),[1],stimulated heteroclitic responses
same,killing of T2 cells pulsed with kinase mutant sequence peptides,[4],able to kill T2 cells pulsed with specific kinase mutant sequence peptides
IIIEFMTYV (listed as Homo sapiens) [T3A2],killing of T2 cells pulsed with kinase mutant sequence peptides,[4],able to kill T2 cells pulsed with specific kinase mutant sequence peptides
KQSSKALQV (listed as Homo sapiens) [p210A],"immune response (IFN-gamma secretion, ELISPOT)",[1],no immune response
YLFKQSSKV (listed as Homo sapiens) [p210E],"immune response (IFN-gamma secretion, ELISPOT)",[1],produced an immune response in some donors tested
YLGGGQFGV (listed as Homo sapiens) [V2A2],IFN-γ production (ELISPOT),[1],greater IFN-γ production following a second stimulation
same,recognition of the native sequence by T cells elicited with the peptide,[1],recognized native sequences
YLINKEEAL (listed as Homo sapiens) [b2a2 A3],recognition of the native sequence by T cells elicited with the peptide,[1],recognized the native sequence as well
same,immune response as gamma-IFN secretion by CD3+ T cells,[1],significant immune respose
same,killing of cells expressing the native peptide,[4],able to recognize and kill cells expressing the native peptide
same,killing of T2 cells pulsed with the heteroclitic peptide,[4],able to kill T2 cells pulsed with the heteroclitic peptides
YIIIEFMTYV (listed as Homo sapiens) [T3B2],heteroclitic response (ELISPOT),[1],stimulated heteroclitic responses
"SSKALQRPV (listed as Homo sapiens) [CMLA2, native b3a2 breakpoint peptide, previously described]",binding to HLA A0201 in the T2 assay,[3],weak MHC binder
KALQRPVAS [p210Cn native],binding result,[5],binds
SSKALQRPV [CMLA2 native],binding result,[6],binds
YLINKEEAL [b2a2 A3 (analogue)],binding result,[5],binds
YLINKEEAV [b2a2 A4 (analogue)],binding result,[5],binds
YLINKVEAL [b2a2 A5 (analogue)],binding result,[5],binds
